Our source for the EC50 values is patent publication EP4745117A1, “NOVEL INDENONE DERIVATIVE AND USE THEREOF” (Amyloid Solution Inc., priority 2023, dated 2025).

One test addresses T1, Aβ1-42 (Homo sapiens, UniProt P05067).
T1 construct: dissolving Aβ1-42 or Tau-RD3 (Tau repeat domain 3) monomers in DMSO
Description: Amyloid-beta disaggregation test by Thioflavin-T analysis. Format: biochemical. The method, then:
(§1) Each compound was dissolved in DMSO to a concentration of 10 mM. Then, the compounds were diluted with 6 % DMSO (in DW) for use.
(§2) Amyloid-beta and tau solutions were prepared by dissolving Aβ1-42 or Tau-RD3 (Tau repeat domain 3) monomers in DMSO to a concentration of 10 mM. Then, the solutions were diluted to 100 µM with DW and stored on ice.
(§3) Meanwhile, Thioflavin-T was dissolved in 50 mM glycine buffer (pH 8.5) to a concentration of 5 mM. Then, the solution was diluted to 5 µM with 50 mM glycine buffer (pH 8.5) and stored in the dark, protected from light.
(§4) The amyloid-beta and tau solutions prepared in Example 1.1 were each placed in 1.5 mL microcentrifuge tubes to a concentration of 50 µM or 35 µM, respectively, and then reacted at 37 °C for 24 hours.
(§5) To each 1.5 mL microcentrifuge tube in which the amyloid-beta and tau aggregation was complete, the compounds were added at concentrations ranging from 500 µM down to 0 µM by serial dilution, and then further reacted at 37 °C for 48 hours.
(§6) 25 µL of each completed reaction solution was added to each well of a 96-well fluorescence analysis plate, and 75 µL of the Thioflavin-T solution was added to each well. After reacting for 5 minutes at room temperature in the dark, the fluorescence value was measured at 450 nm (excitation) and 485 nm (emission) using a multi-mode microplate reader.
(§7) The fluorescence value of the group (control group) treated with only amyloid-beta or tau and aggregated for 72 hours was designated as 100 %. The fluorescence values measured after treating the amyloid-beta and tau aggregates (formed by reacting for 24 hours) with each compound by concentration and reacting for an additional 48 hours were converted to relative values.

Test [1] addresses Tau-RD3 (Tau repeat domain 3) (Homo sapiens, UniProt P10636). Description: Tau disaggregation test by Thioflavin-T analysis. The class given is biochemical. The method, then: as §1, §2, §3, §4, §5, §6, §7
Setting [2] is: Aβ1-42 50 µM aggregated 24 hours, then compound 0 - 500 µM for 48 hours at 37 °C; concentration disaggregating 50 % of aggregates vs control; read-out: EC50 (µM) Aβ.
Setting [3] is: Tau-RD3 35 µM aggregated 24 hours, then compound 0 - 500 µM for 48 hours at 37 °C; concentration disaggregating 50 % of aggregates vs control; read-out: EC50 (µM) Tau.

By EC50 is commonly meant the concentration giving half of the maximal effect.

Where two headings read alike, the source gives them in different places. Where only a bound is given, the exact number is not on record here.

T1 sequence (P05067 672-713 limits assumed): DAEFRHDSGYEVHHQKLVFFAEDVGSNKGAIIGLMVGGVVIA
Chain of Tau-RD3 (Tau repeat domain 3) (P10636 623-653 limits assumed): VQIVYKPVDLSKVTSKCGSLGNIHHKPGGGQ

`Cc1ncsc1C1=C(c2cc[nH]n2)C(=O)c2cc(OCCCc3ccccc3)ccc21` [Compound 25, 3-(4-methylthiazol-5-yl)-6-(3-phenylpropoxy)-2-(1H-pyrazol-3-yl)-1H-inden-1-one]: the EC50 is below 20 µM on Aβ1-42 (setting [2]) and above 250 µM in test [1] (setting [3]).

For `COc1ccccc1C1=C(c2cccnc2)C(=O)c2cc(O)ccc21` [Compound 44-8, 6-hydroxy-3-(2-methoxyphenyl)-2-(pyridin-3-yl)-1H-inden-1-one], the EC50 fell in the range of 100 to 250 µM at Aβ1-42 (setting [2]) and 20 to 100 µM in test [1] (setting [3]).

Regarding `Cc1ncsc1C1=C(c2scnc2C)c2ccc(OCCCc3ccccc3)cc2C1=O` [Compound 77, 2,3-bis(4-methylthiazol-5-yl)-6-(3-phenylpropoxy)-1H-inden-1-one], the EC50 (on Aβ1-42 (setting [2]); in test [1] (setting [3])) was below 20 µM in each case.

Turning to `O=C1C(c2ccccc2)=C(c2ccccc2)c2ncccc21` [Compound 98, 6,7-diphenyl-5H-cyclopenta[b]pyridin-5-one], the EC50 (on Aβ1-42 (setting [2]); in test [1] (setting [3])) was above 250 µM each time.

`Cc1ccccc1C1=C(c2ccccc2C(=O)O)C(=O)c2ccccc21` [Compound 99-8, 2-(1-oxo-3-(o-tolyl)-1H-inden-2-yl)benzoic acid]: the figures for the EC50 (on Aβ1-42 (setting [2]); in test [1] (setting [3])) were above 250 µM and 20 to 100 µM, respectively.

For the molecule `Cc1ncsc1C1=C(c2cccnc2)C(=O)c2cc(OCCCc3ccccc3)cc(O)c21` [Compound 48, 4-hydroxy-3-(4-methylthiazol-5-yl)-6-(3-phenylpropoxy)-2-(pyridin-3-yl)-1H-inden-1-one], the EC50 was below 20 µM on Aβ1-42 (setting [2]) and above 250 µM in test [1] (setting [3]).

As for `Cc1ncsc1C1=C(c2ccc(CN3CCOCC3)cc2)C(=O)c2ccccc21` [Compound 87, 3-(4-methylthiazol-5-yl)-2-(4-(morpholinomethyl)phenyl)-1H-inden-1-one], the figures for the EC50 (on Aβ1-42 (setting [2]); in test [1] (setting [3])) were below 20 µM and 20 to 100 µM, respectively.

On to `Cc1ccccc1C1=C(c2ccccc2)C(=O)c2ccccc21` [Compound 5, 2-phenyl-3-(o-tolyl)-1H-inden-1-one], for which the EC50 on Aβ1-42 (setting [2]) is 20 to 100 µM; in test [1] (setting [3]) it was above 250 µM.

Regarding `O=C1C(Br)=C(c2ccccc2)c2ccccc21` [Compound 6-2, 2-bromo-3-phenyl-1H-inden-1-one], the EC50 at Aβ1-42 (setting [2]) was 20 to 100 µM; in test [1] (setting [3]), below 20 µM.

On to `CNc1ccc2c(c1)C(=O)C(c1ccccc1)=C2c1ccccc1` [Compound 67, 6-(methylamino)-2,3-diphenyl-1H-inden-1-one], for which the EC50 (at Aβ1-42 (setting [2]); in test [1] (setting [3])) was above 250 µM each time.

`O=C1C(N2CCOCC2)=C(c2ccccc2)c2ccccc21` [Compound 8, 2-morpholino-3-phenyl-1H-inden-1-one]: the EC50 at Aβ1-42 (setting [2]) lay within 100 to 250 µM; in test [1] (setting [3]), 20 to 100 µM.

With `COc1ccccc1C1=C(c2cccnc2)C(=O)c2cc(OCCCc3ccccc3)ccc21` [Compound 44, 3-(2-methoxyphenyl)-6-(3-phenylpropoxy)-2-(pyridin-3-yl)-1H-inden-1-one], the EC50 is below 20 µM at Aβ1-42 (setting [2]) and above 250 µM in test [1] (setting [3]).

Consider `CC(C)Oc1ccc2c(c1)C(=O)C(c1ccccc1)=C2c1ccccc1` [Compound 4, isopropoxy-2,3-diphenyl-1H-inden-1-one], for which the EC50 is 20 to 100 µM at Aβ1-42 (read-out: EC50 (µM) Aβ; Aβ1-42 50 µM aggregated 24 hours, then compound 0 - 500 µM for 48 hours at 37 °C; concentration disaggregating 50 % of aggregates vs control) and above 250 µM in test [1] (read-out: EC50 (µM) Tau; Tau-RD3 35 µM aggregated 24 hours, then compound 0 - 500 µM for 48 hours at 37 °C; concentration disaggregating 50 % of aggregates vs control).

On to `COc1cccc(OC)c1C1=C(c2cccnc2)C(=O)c2cc(OCCCc3ccccc3)ccc21` [Compound 45, 3-(2,6-dimethoxyphenyl)-6-(3-phenylpropoxy)-2-(pyridin-3-yl)-1H-inden-1-one], for which the values for the EC50 (on Aβ1-42 (setting [2]); in test [1] (setting [3])) were below 20 µM and 100 to 250 µM, respectively.

As to `Cc1ncsc1C1=C(c2cnccn2)C(=O)c2cc(O)ccc21` [Compound 41-4, 6-hydroxy-3-(4-methylthiazol-5-yl)-2-(pyrazin-2-yl)-1H-inden-1-one], the EC50 (on Aβ1-42 (setting [2]); in test [1] (setting [3])) was above 250 µM in each case.

For the molecule `O=C1C(c2ccccc2)=C(C2CCCCC2)c2ccccc21` [Compound 10, 3-cyclohexyl-2-phenyl-1H-inden-1-one], the EC50 (on Aβ1-42 (setting [2]); in test [1] (setting [3])) was above 250 µM in each case.
